Measured values published in US20110021483A1, “Platinum (IV) Complexes” (PLATCO TECHNOLOGIES (PROPRIETARY) LIMITED, priority 2007, published 2011).

Columns and labels:
Hela cancer cells = experiment: Anticancer activity, IC50 from dose response curves, HeLa cells; assay type: cell-based; details: concentrations 100, 50, 25, 10, 5 and 1 μM
Description: (§1) All Dose response curves were prepared for each of the chosen complexes, as well as positive controls, in order to obtain IC50 values. The concentrations used were 100, 50, 25, 10, 5 and 1 μM. IC50 values were calculated from the log-dose response curves using GraphPad Prism 4.

HT29 cancer cells = experiment: Anticancer activity, IC50 from dose response curves, HT29 cells; assay type: cell-based; details: concentrations 100, 50, 25, 10, 5 and 1 μM
Description: as §1

MCF7 cancer cells = experiment: Anticancer activity, IC50 from dose response curves, MCF7 cells; assay type: cell-based; details: concentrations 100, 50, 25, 10, 5 and 1 μM
Description: as §1

[1] = Thermal stability of the solid complex; assay type: physicochemical
[2] = Stability: reduction by cysteine followed by positive ion mass spectra; assay type: physicochemical; details: water/37° C./18 h, presence of cysteine
From the text: This observation implies that certain platinum(IV) complexes described herein are capable of converting to their corresponding platinum(II) complexes.

physchem = details: water
HeLa cells = experiment: Percent inhibition of HeLa cells at single concentration, 48 h; assay type: cell-based
Description: The anticancer activity of cis-diammineoxalatochloronitroplatinum(IV) (complex I-A) has been compared to cisplatin against two cell lines for 48 h at 77 uM.

MCF7 cells = experiment: Percent inhibition of MCF7 cells at single concentration, 48 h; assay type: cell-based

SMILES	IC50 (Hela cancer cells) [µM]	IC50 (HT29 cancer cells) [µM]	IC50 (MCF7 cancer cells) [µM]	Solid complex stable up to (temperature) [1]	Reduction to platinum(II) complex upon addition of cysteine [2]	solubility (physchem) [µg/mL]	Percent inhibition of HeLa cells (HeLa cells; 48 h at 50 uM) [%]	Percent inhibition of HeLa cells (HeLa cells; 48 h at 77 uM) [%]	Percent inhibition of MCF7 cells (MCF7 cells; 48 h at 50 uM) [%]	Percent inhibition of MCF7 cells (MCF7 cells; 48 h at 77 uM) [%]
NC1CCCCC1N.O=C([O-])C(=O)[O-].O=N[O-].[Cl-].[Pt+4] (stereo not drawn) [II-A, (trans-l-1,2-diaminocyclohexane)oxalatochloronitro-platinum(IV)]	4.81	3.07	5.86	up to 210 °C	oxaliplatin is formed					
[NH2][Pt]1([NH2])([Cl])([N+](=O)[O-])[O]C(=O)C(=O)[O]1 [I-A, cis-diammineoxalatochloronitroplatinum(IV)]						2400				
O=C1[O][Pt-2]2([NH2+]C3CCCC[C@H]3[NH2+]2)[O]C1=O (stereo in doubt) [Oxaliplatin, (trans-l-1,2-diaminocyclohexane)oxalatoplatinum(II)]	11.9	12.3	6.21							
N.N.[Cl][Pt][Cl] [Cisplatin, cisplatin]	10.7	8.11	14.1				86	87	72	76
